Patent US20110003774A1, “COMPOUNDS HAVING ANTI-PROLIFERATIVE PROPERTIES” (VITAL HEALTH SCIENCES PTY. LTD., priority 2003, published 2011)

Assays:
[1] = tested on: Rat Aortic Smooth Muscle Cells (RASMC); assay: MTS proliferation assay (Example 2, Study 2); type: cell-based; conditions: 100 μM, vs vehicle control
Experimental: The MTS proliferation assay was conducted to further support and compliment the adhered cell counts assay. The MTS assay is a well established method for the assessment of cellular proliferation which takes into account the viable cells that are adhered to the plate (as in adhered cell counts) and those that may become detached and float in the media during the course of the experiment (which would be missed in adhered cell counts).

[2] = tested on: Rat Aortic Smooth Muscle Cells (RASMC); assay: Counting adhered cells (Example 2, Study 1); type: cell-based; conditions: adhered cell counts, 0-100 μM, vs vehicle control
Experimental: This example assesses the anti-proliferative activity of α-tocopheryl phosphate (TP), di-tocopheryl phosphate (T2P), the TP/T2P mixture and α-tocopherol using two types of cell counting assays: adhered cell counts and MTS assay.
In this study cells remaining on the bottom of the plate were counted and anti-proliferative activity was assessed based on the number of viable cells that remained adhered to the plate.

CD36 scavenger receptor = assay: Surface expression of CD36 scavenger receptor, FACS with antiCD36-FITC; type: cell-based, human; conditions: THP-1 monocytes, control cells treated with tocopherol
Experimental: (§1) Cell Culture: Tocopherol and the TP/T2P mixture were each dissolved in ethanol, and the concentrations of the stock solutions were confirmed spectrophotometrically. Monocytes (THP-1) were grown in RPMI/10% FCS.
FIG. 6 represents the change in cell numbers over time as indicated by the number of cells which have taken up the fluorescent antibody.

[3] = tested on: Rat Aortic Smooth Muscle Cells (RASMC); assay: Smooth muscle cell proliferation - cell counts (Example 1); type: cell-based; conditions: for Inhibition of cellular proliferation (in words): cell counts after 72 h, tested 0.25-100 μM
From the text: The Rat Aortic Smooth Muscle Cells (RASMC) used in proliferative studies are derived from the tunica intima and tunica media of healthy, fibrous plaque-free adult rat aorta. This cell line is an accepted model for the study of atherosclerosis, since increased arterial smooth muscle mass are found in the intima lesion of atherosclerosis. RASMC are cryopreserved at second passage and can be propagated at least 16 population doublings. RASMC respond to various factors by cell proliferation and hypertrophy, which are prominent indicators of atherosclerosis in vascular disease. RASMC are well suited for the study of large vessel smooth muscle cell growth and differentiation and serve as an in vitro model in correlation with live rat models.
Rat Aortic Smooth Muscle Cells (RASMC) were seeded in growth medium (basal medium+10% FBS) into 6 well plates (50,000 cells/well). After 24 h, cells were washed twice with Hanks Buffered Salt Solution and serum depleted media (basal medium+0.2% FBS) was added to each well. Cells were serum starved for 48 h. Treatments were then prepared in growth medium and added to each well (3 ml/well). Each treatment was conducted in triplicate. The effect of tocopherol and tocopherol phosphate on smooth muscle cell proliferation was tested at eight concentrations: 0.25, 0.5, 1, 5, 10, 20, 50 and 100 μM. Control treatments included: growth medium and growth medium+vehicle (EtOH, 1/1000). After a 72 h incubation period at 37° C., 5% CO2, cells were counted.
Cell proliferation was assessed and quantified by cell counting. Cells were counted after 48 h starvation in basal medium supplemented with 0.2% serum before the addition of test compounds. The average cell count of triplicate wells was ˜60,000. This number exceeds the number of cells seeded prior to starvation (50,000). Therefore the cells were determined to be viable and treatments were added to each well as described previously.

THP-1 monocytes [4] = assay: Uptake of oxLDL-DiO by FACS; type: cell-based, human
Experimental: Labeling oxLDL. OxLDLs (90% to 100% oxidation) were purchased from Intracell Corp. Small amounts of LDL were oxidized with CuSO4 ([…]) at 37° C. for 18 to 22 hours. LDL oxidation was confirmed by the formation of a characteristic smear band on an agarose gel. Labeling of oxLDL was done basically as previously described. OxLDLs were incubated at 37° C. with DiO (Molecular Probes) in lipoprotein-deficient serum (Sigma) for 15 hours. The labeled oxLDLs (oxLDL-DiO) were purified by ultracentrifugation over a KBr gradient and dialyzed against several changes of saline-EDTA ([…] NaCl-0.01% EDTA) for 6 hours.
Uptake of oxLDL: Uptake of oxLDL was studied with fluorescence-activated cell sorting (FACS). For FACS, the cells were pretreated for 16 hours with 50 μM tocopherol, tocopheryl phosphates, or ethanol solvent (control) and then incubated with oxLDL-DiO (5 μg/mL medium) for 6 hours. For competition experiments, the cells were incubated with monoclonal anti-CD36 antibody (60 μg/5 mL DMEM) (Ancell), with an unspecific isotype-matched antibody (mouse IgM, Ancell), or with unlabeled oxLDL (100 μg/5 mL DMEM) (Intracell Corp). Thereafter, the cells were washed 3 times with PBS and twice with PBS-3 mg/mL BSA and then were detached with trypsin (0.25% trypsin, 0.03% EDTA). […] Data were calculated by subtracting the cell autofluorescence from the fluorescence of the treated samples.

THP-1 monocytes [5] = assay: Growth inhibition of THP-1 monocytes; type: cell-based, human
Experimental: as §1
Growth inhibition by TP/T2P mixture of THP-1 Monocytes: Monocyte proliferation is an important event in the onset and progression of atherosclerosis.

Compound | Inhibition of smooth muscle cell proliferation [1] | Maximum inhibition of smooth muscle cell proliferation [2] | CD36 expression (in words) (CD36 scavenger receptor) | Optimum inhibition of proliferation (plateau) ([3]; 72 h, higher doses) | Inhibition of cellular proliferation (in words) ([3]; listed as Tocopherol) | Inhibition of cellular proliferation (in words) ([3]; listed as α-tocopherol) | Concentration giving the same inhibition of oxLDL uptake (as 50 μM tocopherol, 33% reduction) (THP-1 monocytes [4]) [µM] | Reduction of OxLDL-DiO uptake signal (median of the peak) (THP-1 monocytes [4]; 50 μM, 16 h pretreatment, 6 h oxLDL-DiO) [%] | Inhibition of monocyte proliferation (in words) (THP-1 monocytes [5]; THP-1, TP/T2P at 30 μM (TP1) and 60 μM (TP2), especially after 48 h, relative to ethanol control) | Inhibition of proliferation of human monocyte cells (THP-1 monocytes [5]; THP-1 monocytes)
α-tocopheryl phosphate [TP] | up to 85% | did not inhibit | – | – | – | – | – | – | – | –
Cc1c(C)c2c(c(C)c1O)CC[C@@](C)(CCC[C@H](C)CCC[C@H](C)CCCC(C)C)O2 [tocopherol, α-tocopherol] | – | – | expressed large amounts of CD36 receptors | around 60% | inhibited only to some degree | partially inhibited | 50 | 33 | not able to inhibit | no inhibition
